Measured values as given in patent US20110092488A1, “Quninoline Methanol Compounds for the Treatment and Prevention of Parasitic Infections” (priority 2005, published 2011).
Values after ≈ are worked out from the molar mass of the structure shown. Read-outs that look alike come from different tables or passages of the source.

How the values were obtained:
[1] = test system: FVO strain of P. falciparum; test: Efficacy in P. falciparum-challenged Aotus monkeys; type: in vivo, Plasmodium falciparum in Aotus lemurinus lemurinus
[2] = test system: P. falciparum D6; test: In vitro antimalarial activity against P. falciparum D6; type: cell-based, Plasmodium falciparum
Experimental: The in vitro activities of AAQMs against P. falciparum strains W2, D6, TM91C235 and TM90C2A were evaluated using the method of Desjardins et al. as modified by Milhous et al. W2 is chloroquine resistant and mefloquine sensitive, D6 is chloroquine sensitive but naturally less susceptible to mefloquine, TM91C235 is resistant to mefloquine, chloroquine and pyrimethamine as is TM90C2A, however this latter parasite is a two pfmdr1 copy strain. We routinely run mefloquine in this screen as a control to ensure assay validity.
The combined effects of azithromycin (as represented by compound 196 on the horizontal axes of FIG. 4 through 6) and WR074086 (as represented by compound 14885 on vertical axes of FIGS. 4 through 6) against three strains of P. falciparum were investigated using isobologram analysis. First, the IC50s of each compound were determined as described above.

[3] = test system: AMRU1 strain of P. vivax; test: Efficacy in P. vivax-challenged Aotus monkeys; type: in vivo, Plasmodium vivax in Aotus lemurinus lemurinus; conditions: oral; for Outcome: Aotus
Experimental: The P. berghei-mouse efficacy data were obtained from the WRAIR chemical information system (subcutaneous testing) or from recent tests conducted at AFRIMS, Thailand or at the University of Miami using a modified version of the Thompson test. Groups of five mice were inoculated through i.p. injection on day 0 (usually with 1×106 P. berghei-parasitized erythrocytes). The drugs in Table 1 were administered either subcutaneously or orally for three days (usually on days 3-5) at doses of 1.25-160 mg/kg in two to four fold increments. Cure was defined as survival until day 60 (subcutaneous dosing) or day 31 post-treatment (oral dosing). […] The minimum effective dose was the lowest dose level that cured at least one of five mice. The Aotus studies were performed according to Obaldia; Detection of Klebsiella pnuumoniae antibodies in Aotus l. lemurinus (Panamanian owl monkey) using an enzyme linked immunosorbent assay (ELIA) test; Lab Anim (25)133-141 (1991) and Obaldia et al., WR 238605, chloroquine, and their combinations as blood schizonticides against a chloroquine-resistant strain of Plasmodium vivax in Aotus monkeys; Am. J. Trop. Med. Hyg. (56)508-510 (1997), which are incorporated by reference, herein. Groups of two Aotus lemurinus 6 lemurinus of the karyotype VIII or IX (27) male and female monkeys with weights ranging from 742-970 g were inoculated with 5×10^6 parasites of either the FVO strain of P. falciparum or the AMRU1 strain of P. vivax. Both of these strains are chloroquine resistant. […] Monkeys were examined and thick Giemsa-stained blood smears were prepared and enumerated daily (17) to monitor the course of infection. […] In some instances, a high dose of the test drug was used to retreat monkeys instead of the mefloquine rescue. Monkeys are considered cured if they are parasite free 90 days post treatment. […] Plasma samples were taken from the monkeys in some studies for quantification of metabolites. Additional blood samples were taken as appropriate for complete blood counts and serum chemistry. Research was conducted in compliance with the Animal Welfare Act and other federal statutes and regulations relating to animals and experiments involving animals and adheres to principles stated in the Guide for the Care and Use of Laboratory Animals, NRC Publication, 1996 edition (34).

[4] = test system: P. falciparum TM91C235; test: In vitro antimalarial activity against P. falciparum TM91C235; type: cell-based, Plasmodium falciparum
[5] = test system: primary rat forebrain neurons; test: Neurocytotoxicity assay (MTT)
Experimental: The neurocytotoxicity assay of AAQMs was conducted as per Dow et al.; The antimalarial potential of 4-quinolinecarbinolamines may be limited due to neurotoxicity and cross-resistance in mefloquine-resistant Plasmodium falciparum strains; Chemother. (48) 2624-2632 (2004) and is incorporated herein, by reference. This assay utilizes primary rat forebrain neurons and is a multi-endpoint screen. […] The AAQMs outlined in Table 1 were screened at 10, 100 and 1000 μM in triplicate, and the reduction in viability observed was determined using the 3-(4,5-dimethylthiazol-2-yl)-2,5-diphenyltetrazolium bromide (MTT) assay as per Dow et al., discussed above. Approximate IC50 values were calculated on the basis of the level of inhibition observed at each concentration. Full dose response assays were run for mefloquine and WR069878 with two fold dilutions (n=6 wells per dilution) and 11 dilutions for each drug. IC50s were calculated using Prism. Each time the assay is conducted, 20 μM mefloquine is included, as a control. […] Assays are re-run if the loss of viability induced by mefloquine is <40% or >60%. Neuroprotection experiments with 6,7-dinitroquinoxaline-2,3-dione (DNQX) and magnesium were performed as per Dow et al.; Transcriptional profiling of mefloquine-induced disruption of calcium homeostasis in neurons in vitro; Genomics (86)539-550 (2005), which is incorporated by reference, herein. Neurons were exposed to DNQX (100 μM) or magnesium (12 mM) for 5 min, followed by mefloquine (25 μM) or WR069878 (250 μM) for 20 min after which reduction in cell viability was determined. […] DNQX is an inhibitor of non-N-methyl-D-aspartate (NMDA) receptors, whilst magnesium inhibits the functioning of the inositol 1,4,5-trisphosphate (IP3)-mediated calcium signaling pathway at several points. The effects of mefloquine and WR069878 on neuronal calcium homeostasis were assessed utilizing confocal microscopy as per Dow et al, as discussed in Antimicrob Agents Chemother. (48)2624-2632 (2004), cited above, and incorporated by reference, herein. Briefly neurons were loaded with calcium sensitive dye Fluo 3-A for 1 h and were washed prior to image experiments. Neurons were ‘spiked’ with 100 μM mefloquine or WR069878. Subsequent changes in neuronal calcium homeostasis were recorded as fluctuations in the emitted fluorescence of fluo-3-complexed calcium at 530 nm (excitation was 488 nm). Sequential image scans of fields containing 5-25 neurons were used to construct temporal profiles. Scans were made at 10 s intervals. Fluorescence levels for each neuron were normalized 12 to time zero values. Data were then pooled from three and five independent experiments for mefloquine and WR069878 respectively.

IC90 against D6 [2]: 5.3 ng/mL (≈ 0.0115 µM)
Activity against P. falciparum TM91C235 (IC50 in ng/ml) [4]: 1.5 ng/mL
TM91C235 IC90 ([4]; Table 2): 3.3 ng/mL
IC90 against TM91C235 ([4]; text b26): 11.7 ng/mL (≈ 0.0255 µM)
SMILES: CCCCN(CCCC)CC(O)c1cc(-c2ccc(Cl)cc2)nc2cc(Cl)c(C)cc12 (stereo not drawn) [WR069878]
Outcome in Aotus ([1]; 10 mg/kg/day x7 oral, groups of two, Cure = parasite free 90 days, R = average day of recrudescence, Failure = rescued with mefloquine): Cures and Cure
Outcome ([1]; Aotus, oral, 10 mg/kg/day x 7 days, primary treatment): Cure
Outcome ([3]; 0.625 mg/kg/day x 3 days, primary treatment): Failure
Outcome ([3]; 2.5 mg/kg/day x 3 days, primary treatment): Failure
Outcome ([3]; 10 mg/kg/day x 3 days, primary treatment, number in brackets = days before recrudescence, 10 mg/kg/day): Clear (7) and Cure
Outcome ([3]; 20 mg/kg/day x 1 day, retreatment, one monkey per line, number in brackets = days before recrudescence, 20 mg/kg/day): Cure and Clear (8)
Outcome ([3]; 40 mg/kg/day x 3 days, retreatment): Cure
Outcome ([3]; 80 mg/kg/day x 1 day, retreatment, number in brackets = days before recrudescence, 80 mg/kg/day): Clear (11) and Cure
Outcome in P. vivax infections ([3]; three day regimen): cures P. vivax infections
IC50 ([5]; read-out: Neurotoxicity IC50, full dose response, FIG. 2(a)): 242 µM
IC50 ([5]; read-out: Neurotoxicity ranking (IC50 in μM), approximate IC50 from screen at 10, 100 and 1000 μM, MTT): 200 µM
